# Laboratory results published in article PMC9133015 (Nature Communications, 2022).
# Where “and” joins values, the source holds several entries; their conditions need not be identical. Identical values can stand only once. Like-named read-outs stand apart in the source and are kept apart here.
# Tests used:
# [1] = target: T1, DYRK2 (Homo sapiens, UniProt Q92630); assay: DYRKs kinase activity assay (33P-ATP, DYRKtide substrate): DYRK2; assay type: biochemical
# T1 construct: purchased Reaction Biology Corporation (assay service)
# T1 sequence (Q92630 1-601): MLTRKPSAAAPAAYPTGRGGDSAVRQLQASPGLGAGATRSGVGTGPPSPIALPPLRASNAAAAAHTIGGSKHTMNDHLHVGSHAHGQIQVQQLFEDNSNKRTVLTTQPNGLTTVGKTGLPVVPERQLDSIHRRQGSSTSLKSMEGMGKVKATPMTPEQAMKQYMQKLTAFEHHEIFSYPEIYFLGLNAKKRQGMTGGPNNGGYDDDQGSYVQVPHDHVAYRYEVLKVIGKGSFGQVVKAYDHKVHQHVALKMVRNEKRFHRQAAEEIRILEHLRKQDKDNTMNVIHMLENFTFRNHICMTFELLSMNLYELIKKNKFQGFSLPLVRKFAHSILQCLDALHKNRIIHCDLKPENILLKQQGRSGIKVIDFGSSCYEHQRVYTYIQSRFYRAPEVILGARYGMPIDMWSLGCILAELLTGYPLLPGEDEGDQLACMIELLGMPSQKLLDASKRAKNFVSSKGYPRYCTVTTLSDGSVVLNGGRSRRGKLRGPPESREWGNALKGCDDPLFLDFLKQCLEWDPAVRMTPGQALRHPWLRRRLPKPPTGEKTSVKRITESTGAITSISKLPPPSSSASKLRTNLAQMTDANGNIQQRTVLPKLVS
# [2] = target: T2, DYRK2 protein (Homo sapiens, UniProt Q92630); assay: Microscale thermophoresis binding assay; settings: for Fnorm: triplicates
# T2 construct: 6xHis (N, cleaved yes); TEV protease cleavage site (N, cleaved yes); made in house; host or cells: E. coli BL21 (DE3)
# T2 sequence (Q92630 72-479 isoform Q92630-2): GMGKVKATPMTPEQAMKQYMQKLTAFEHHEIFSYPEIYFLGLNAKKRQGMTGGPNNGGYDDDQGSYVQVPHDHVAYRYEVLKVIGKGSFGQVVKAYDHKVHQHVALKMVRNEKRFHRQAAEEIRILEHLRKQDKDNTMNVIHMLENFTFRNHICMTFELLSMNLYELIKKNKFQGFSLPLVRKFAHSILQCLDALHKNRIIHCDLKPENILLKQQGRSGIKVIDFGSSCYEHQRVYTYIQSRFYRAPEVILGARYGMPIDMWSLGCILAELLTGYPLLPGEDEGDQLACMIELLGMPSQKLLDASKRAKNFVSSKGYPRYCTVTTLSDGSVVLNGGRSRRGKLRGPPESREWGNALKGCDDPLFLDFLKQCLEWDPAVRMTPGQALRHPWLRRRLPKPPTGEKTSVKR
# [3] = DYRK2 kinase, Conc. 0.000508053 µM, duplicate values
# [4] = DYRK2 kinase, Conc. 0.00152416 µM, duplicate values
# [5] = DYRK2 kinase, Conc. 0.00457247 µM, duplicate values
# [6] = DYRK2 kinase, Conc. 0.0137174 µM, duplicate values
# [7] = DYRK2 kinase, Conc. 0.0411523 µM, duplicate values
# [8] = DYRK2 kinase, Conc. 0.123457 µM, duplicate values
# [9] = DYRK2 kinase, Conc. 0.37037 µM, duplicate values
# [10] = DYRK2 kinase, Conc. 1.11111 µM, duplicate values
# [11] = DYRK2 kinase, Conc. 3.33333 µM, duplicate values
# [12] = DYRK2 kinase, Conc. 10 µM, duplicate values
# [13] = Supplementary Table 1, read-out: IC50 (μM), DYRK2 kinase
# [14] = DYRK2 kinase, Conc. 0.00152416 µM, duplicate values, read-out: % Inhibition
# [15] = DYRK2 kinase, Conc. 3.33333 µM, duplicate values, read-out: % Inhibition
# [16] = DYRK2 kinase, Conc. 10 µM, duplicate values, read-out: % Inhibition
smiles,measurement,setting,value
O=C(COc1ccccc1-c1ccnn1-c1ccccc1)NN=Cc1coc2ccc(Cl)cc2c1=O [Compound 11],% Inhibition,[1]; [3],-0.64% and -0.50%
same,% Inhibition,[1]; [4],-10.49% and -4.61%
same,% Inhibition,[1]; [5],-7.80% and -6.47%
same,% Inhibition,[1]; [6],2.76% and 2.77%
same,% Inhibition,[1]; [7],5.64% and 5.65%
same,% Inhibition,[1]; [8],2.54%
same,% Inhibition,[1]; [9],6.34% and 2.72%
same,% Inhibition,[1]; [10],14.05% and 16.10%
same,% Inhibition,[1]; [11],22.86% and 21.57%
same,% Inhibition,[1]; [12],38.49% and 39.53%
same,IC50,[1]; [13],> 10 µM
CCN1CCN(C(=O)c2ccc(Nc3nc(-c4ccc5nc(N(C)C)sc5c4)c4sccc4n3)nc2)CC1 [Compound 27],% Inhibition,[1]; [3],-2.37% and 0.19%
same,% Inhibition,[1]; [4],1.48%
same,inhibition at 0.00152416 µM,[1]; [14],1.6%
same,% Inhibition,[1]; [5],3.31% and -4.82%
same,% Inhibition,[1]; [6],5.42% and 2.62%
same,% Inhibition,[1]; [7],-2.71% and -6.99%
same,% Inhibition,[1]; [8],2.56% and -2.91%
same,% Inhibition,[1]; [9],3.14% and 0.34%
same,% Inhibition,[1]; [10],-1.20% and -1.05%
same,% Inhibition,[1]; [11],2.76%
same,inhibition at 3.33333 µM,[1]; [15],2.35%
same,% Inhibition,[1]; [12],7.55%
same,inhibition at 10 µM,[1]; [16],7.66%
same,DYRK2 inhibitory activity (in words),[1]; structural optimization of lead 12,no inhibition
CC(C)N1CCN(Cc2ccc(Nc3ncc(F)c(-c4ccc5ncsc5c4)n3)nc2)CC1 [Compound 12],Kd,[2],4210 nM
same,Fnorm,[2]; Ligand Concentration 1.52588e-9 M,954.38 ‰ and 953.199 ‰ and 953.894 ‰
same,Fnorm,[2]; Ligand Concentration 3.05176e-9 M,952.707 ‰ and 951.359 ‰ and 952.777 ‰
same,Fnorm,[2]; Ligand Concentration 6.10352e-9 M,952.691 ‰ and 953.017 ‰ and 952.481 ‰
same,Fnorm,[2]; Ligand Concentration 1.2207e-8 M,952.212 ‰ and 953.635 ‰ and 952.43 ‰
same,Fnorm,[2]; Ligand Concentration 2.44141e-8 M,953.58 ‰ and 951.571 ‰ and 954.168 ‰
same,Fnorm,[2]; Ligand Concentration 4.88281e-8 M,951.243 ‰ and 951.794 ‰ and 952.294 ‰
same,Fnorm,[2]; Ligand Concentration 9.76563e-8 M,951.852 ‰ and 953.231 ‰ and 951.931 ‰
same,Fnorm,[2]; Ligand Concentration 1.95313e-7 M,949.537 ‰ and 959.016 ‰ and 950.589 ‰
same,Fnorm,[2]; Ligand Concentration 3.90625e-7 M,952.367 ‰ and 950.104 ‰ and 950.78 ‰
same,Fnorm,[2]; Ligand Concentration 7.8125e-7 M,949.243 ‰ and 949.342 ‰ and 952.357 ‰
same,Fnorm,[2]; Ligand Concentration 1.5625e-6 M,951.973 ‰ and 948.051 ‰ and 949.742 ‰
same,Fnorm,[2]; Ligand Concentration 3.125e-6 M,946.14 ‰ and 947.629 ‰ and 949.334 ‰
same,Fnorm,[2]; Ligand Concentration 6.25e-6 M,948.962 ‰ and 949.021 ‰ and 944.76 ‰
same,Fnorm,[2]; Ligand Concentration 1.25e-5 M,945.246 ‰ and 944.859 ‰ and 943.424 ‰
same,Fnorm,[2]; Ligand Concentration 2.5e-5 M,944.179 ‰ and 942.478 ‰ and 945.127 ‰
same,Fnorm,[2]; Ligand Concentration 5e-5 M,942.507 ‰ and 940.515 ‰ and 942.733 ‰
same,inhibition at 0.00152416 µM,"[1]; 0.00152416 µM, duplicates, read-out: % Inhibition DYRK2",3.73%
same,inhibition at 0.0137174 µM,"[1]; 0.0137174 µM, duplicates, read-out: % Inhibition DYRK2",8.64%
same,inhibition at 0.0411523 µM,"[1]; 0.0411523 µM, duplicates, read-out: % Inhibition DYRK2",21.1%
same,inhibition at 0.123457 µM,"[1]; 0.123457 µM, duplicates, read-out: % Inhibition DYRK2",34.4%
same,inhibition at 0.37037 µM,"[1]; 0.37037 µM, duplicates, read-out: % Inhibition DYRK2",57.9%
same,inhibition at 1.11111 µM,"[1]; 1.11111 µM, duplicates, read-out: % Inhibition DYRK2",76.8%
same,inhibition at 3.33333 µM,"[1]; 3.33333 µM, duplicates, read-out: % Inhibition DYRK2",87.6%
same,inhibition at 10 µM,"[1]; 10 µM, duplicates, read-out: % Inhibition DYRK2",82.5%
same,% Inhibition,[1]; [3],5.75% and 2.04%
same,% Inhibition,[1]; [4],4.49%
same,inhibition at 0.00152416 µM,[1]; [14],3.73%
same,% Inhibition,[1]; [5],3.40% and 7.56%
same,% Inhibition,[1]; [6],7.85%
same,inhibition at 0.0137174 µM,"[1]; DYRK2 kinase, Conc. 0.0137174 µM, duplicate values, read-out: % Inhibition",8.64%
same,% Inhibition,[1]; [7],22.26%
same,inhibition at 0.0411523 µM,"[1]; DYRK2 kinase, Conc. 0.0411523 µM, duplicate values, read-out: % Inhibition",21.1%
same,% Inhibition,[1]; [8],33.57%
same,inhibition at 0.123457 µM,"[1]; DYRK2 kinase, Conc. 0.123457 µM, duplicate values, read-out: % Inhibition",34.4%
same,% Inhibition,[1]; [9],58.41%
same,inhibition at 0.37037 µM,"[1]; DYRK2 kinase, Conc. 0.37037 µM, duplicate values, read-out: % Inhibition",57.9%
same,% Inhibition,[1]; [10],75.65%
same,inhibition at 1.11111 µM,"[1]; DYRK2 kinase, Conc. 1.11111 µM, duplicate values, read-out: % Inhibition",76.8%
same,% Inhibition,[1]; [11],88.99%
same,inhibition at 3.33333 µM,[1]; [15],87.6%
same,% Inhibition,[1]; [12],86.13%
same,inhibition at 10 µM,[1]; [16],82.5%
same,IC50,[1]; [13],0.263 µM
same,IC50,[1]; read-out: DYRK2 IC50,0.263 µM
CC(C)Cc1nc(N2CCN(CC(=O)NCc3ccco3)CC2)c(C#N)c2c1COC(C)(C)C2 [Compound 14],% Inhibition,[1]; [3],0.98% and 2.97%
same,% Inhibition,[1]; [4],13.91% and 15.64%
same,% Inhibition,[1]; [5],3.50% and 5.44%
same,% Inhibition,[1]; [6],7.06% and 8.93%
same,% Inhibition,[1]; [7],12.96% and 14.71%
same,% Inhibition,[1]; [8],25.38% and 26.88%
same,% Inhibition,[1]; [9],22.08% and 23.65%
same,% Inhibition,[1]; [10],26.44% and 27.92%
same,% Inhibition,[1]; [11],22.42% and 24.14%
same,% Inhibition,[1]; [12],27.65% and 29.11%
same,IC50,[1]; [13],> 10 µM
